Key:
testosterone antiserum = conditions: manufacturer statement; cited from earlier work
[1] = Comparison of effects on growth in intact male and female White Leghorn chickens (Study II, Table 1); assay type: in vivo; conditions: for 6-week Body Weight Change / 12-week Body Weight Change / 12-week Shank-Toe Length Change: 1.0-cm implant, vs cholesterol control, (decrease); for 6-week Body Weight / 12-week Body Weight (final) / 12-week Shank-Toe Length: 1.0-cm s.c. implant
Protocol: The single comb White Leghorn strain (Dekalb XL) of chicken (Avian Services, Frenchtown, N.J.) was used in all studies. Chicks were obtained on the day following hatch and were then maintained in a well ventilated, temperature- and humidity-controlled animal room. Chicks were housed in temperature-controlled (access to small brood chambers--32° to 35° C.), wire-floored, 5-tier brooder batteries (measuring 0.74 W×1.55 L×0.27 H m per tier) until termination of respective studies. A 12 hour light:12 hour dark photoperiod was maintained at all times within the animal room. Feed and water were available ad libitum, with a standard commercial diet (Agway; Bordentown, N.J.), chick starter mash, fed to chicks 1 to 42 days of age, and then from 43 to 84 days, grower mash was provided (manufacturer statement on ration compositions are shown in Table 2).
In all studies, chicks were rank-ordered by weight, wing-banded and distributed into treatment groups of equal body weights at 14 days of age. Excluding Study I, e.g., in which male, female and castrate male comparisons were made, all control groups were implanted with 1.0-cm length cholesterol-filled Silastic polysiloxane implants (i.e., steroid surface exposure of 1.0-cm; actual length was 2.0-cm with 1/2 cm wood dowel plugs placed at each end of implant). The remaining treatment groups consisted of chicks (male, female or castrated male) implanted with either testosterone-, 5-alpha-DHT-, 5-beta-DHT-, estradiol-17-beta-, or 19-nortestosterone-filled Silastic polysiloxane implants with steriod surface exposures of either 0.3, 1.0 or 3.0 cm in length. Steroid implants were prepared by manually packing respective crystalline steroids (Steraloids; Wilton, N.H.) into Silastic Medical Grade tubing (1.57 mm i.d.; Dow Corning) (Smith et al., 1977). The amounts of steroid contained in the implants were as follows (mean±SEM of 20 randomly chosen implants, 5 for each steroid): 2.6±0.2 mg (0.3-cm), 8.9±0.4 mg (1.0-cm), and 29.2±0.7 mg 3.0-cm). At the time of group assignment, implants were placed in the subcutaneous (S.C.) layer of skin behind the neck. Supplemental steroid implants (containing doses of steroids equivalent to those of the initial implants) were implanted at 6 and 10 weeks of age, without removal of prior implants, to ensure adequate androgen replacement with increasing growth. Cage floors and fecal collection trays were checked for 2 consecutive days following each implantation session to ensure completeness of procedure. […] An outline of individual studies along with experimental treatments (i.e., type and dose of steroid) and number of birds per treatment group is given in Table 3.
Body weight and shank-toe length (King, 1969; combined length of metatarsus and longest toe which is an estimate of bone growth) were measured at weekly (or biweekly in Study I) intervals from the beginning through the end of each study. At the termination of studies I (12 weeks of age), III (12 weeks of age), IV (12 weeks of age) and V (6 weeks of age), several organs were excised and immediately weighed at necropsy. Relative tissue weights (percent of final body weight) and body weight minus [comb plus wattle weights] (i.e., final adjusted body weight) were also calculated. Excluding Study I, biweekly blood samples were obtained by venipuncture of the wing vein from the same individual birds for respective treatments. After centrifugation of whole blood, plasma was removed and stored at -20° C. until hormone assays were performed.
^a Steroid treatments entailed the subcutaneous implantation (between
the shoulders) of 1.0 cm length, silastic implants (crystalline steroids
at 2, 6 and 10 weeks of age.)

SMILES | cross-reaction with Immuchem testosterone antiserum (testosterone antiserum) | 6-week Body Weight Change ([1]; intact female) | 12-week Body Weight Change ([1]; intact female) | 12-week Shank-Toe Length Change ([1]; intact female) | 6-week Body Weight ([1]; intact female) | 12-week Body Weight (final) ([1]; intact female) | 12-week Shank-Toe Length ([1]; intact female) | 6-week Body Weight Change ([1]; intact male) | 12-week Body Weight Change ([1]; intact male) | 12-week Shank-Toe Length Change ([1]; intact male) | 6-week Body Weight ([1]; intact male) | 12-week Body Weight (final) ([1]; intact male) | 12-week Shank-Toe Length ([1]; intact male)
C[C@]12CC[C@H]3[C@@H](CCC4=CC(=O)CC[C@@]43C)[C@@H]1CC[C@@H]2O [Testosterone, testosterone] | 100% | 5.8% | 5.1% | 2.6% | 553 ± 11 g | 1067 ± 22 g | 14.7 ± 0.09 cm | 9.4% | 8.6% | 3.1% | 585 ± 13 g | 1275 ± 27 g | 16.5 ± 0.17 cm
C[C@]12CCC(=O)C[C@@H]1CC[C@@H]1[C@@H]2CC[C@]2(C)[C@@H](O)CC[C@@H]12 [5-alpha-DHT, 5-alpha-dihydrotestosterone] | 7.8% | 9.9% | 6.5% | 3.3% | 529 ± 12 g | 1051 ± 15 g | 14.6 ± 0.12 cm | 17.2% | 16.1% | 7.0% | 535 ± 27 g | 1171 ± 50 g | 15.9 ± 0.24 cm
